# “And” between values parts separate entries of the source, which are not always exact repeats. Equal entries are not always repeated.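 Cultured in 96-well plates, cells were exposed to test compound for 48 hours across five concentrations. GI50 is the concentration that inhibits growth by half. TGI: concentration producing complete growth inhibition.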
# Experiments:
# Experiment in all cases: DTP human tumour cell line panel, 48 h
# A498 renal = system: A498 renal
# ACHN renal = system: ACHN renal
# M14 melanoma = system: M14 melanoma
# MCF7 breast = system: MCF7 breast
# MOLT-4 leukemia = system: MOLT-4 leukemia
# NCI-H23 lung = system: NCI-H23 lung
# OVCAR-3 ovarian = system: OVCAR-3 ovarian
# SK-OV-3 ovarian = system: SK-OV-3 ovarian
# HS 578T breast = system: HS 578T breast
# T-47D breast = system: T-47D breast
SMILES,GI50 (A498 renal),TGI (A498 renal),GI50 (ACHN renal),TGI (ACHN renal),GI50 (M14 melanoma),TGI (M14 melanoma),GI50 (MCF7 breast),TGI (MCF7 breast),GI50 (MOLT-4 leukemia),TGI (MOLT-4 leukemia),GI50 (NCI-H23 lung),TGI (NCI-H23 lung),GI50 (OVCAR-3 ovarian),TGI (OVCAR-3 ovarian),GI50 (SK-OV-3 ovarian),TGI (SK-OV-3 ovarian),GI50 (HS 578T breast),TGI (HS 578T breast),TGI (T-47D breast),GI50 (T-47D breast)
Cc1nc2cc(Nc3nc(Nc4ccc(F)cc4)nc(N4CCN(C)CC4)n3)ccc2n1Cc1ccccc1,1.56 µM,3.19 µM,1.87 µM,3.83 µM,1.97 µM,3.69 µM,1.36 µM,3.38 µM,2.01 µM,5.07 µM,2 µM,4.5 µM,1.84 µM,3.51 µM,1.9 µM,3.78 µM,,,,
COc1cc(Cl)c2c3c(c(C(=O)c4ccccc4)oc13)CCC2,,> 100 µM,,> 100 µM,,> 100 µM,,,,> 100 µM,,> 100 µM,,> 100 µM,,> 100 µM,,,,
CCOC(=O)N[C@H]1CCc2c(Br)c(OC)c(OC)c(OC)c2-c2ccc(SC)c(=O)cc21,< 0.01 µM,< 0.0115 µM,< 0.01 µM,15 µM,< 0.0128 µM,4.35 µM,< 0.01 µM,12.7 µM,< 0.0108 µM,> 45.3 µM,< 0.01 µM,24 µM,< 0.01 µM,,< 0.01 µM,59.4 µM,< 0.01 µM,37.3 µM,,
CCCCCC(O)(CCCCC)CCCCCCCCC1=C(O)c2[nH]c(=O)ccc2C(=O)C1=O,,24.6 µM,,19.2 µM,,21.6 µM,,,,55.5 µM,,7.73 µM,,16.2 µM,,29.6 µM,,,,
O=c1c2ccccc2nc(-c2ccccc2)n1O,,> 100 µM,,> 100 µM,,> 100 µM,,> 100 µM,,,,> 100 µM,,> 100 µM,,> 100 µM,,> 100 µM,> 100 µM,
CC1CCP(=O)(c2ccccc2)CC1 (configuration not stated),,,,> 100 µM,,> 100 µM,,,,> 100 µM,,> 100 µM,,> 100 µM,,> 100 µM,,,,
C=CCC(N[C@H](CO)c1ccccc1)c1cn(S(=O)(=O)c2ccc(C)cc2)c2ccccc12 (some centres not stated),,,18 µM,45.2 µM,14.5 µM,31.5 µM,> 100 µM,> 100 µM,15.2 µM,41.4 µM,20.3 µM,43.5 µM,> 100 µM,> 100 µM,59.7 µM,> 100 µM,24.3 µM,60.5 µM,> 100 µM,55.9 µM
CCCCCCCCCCCC(O)=C1C(=O)CC(O)CC1=O (configuration not stated),,,,> 100 µM,,> 100 µM,,,,> 100 µM,,> 100 µM,,> 100 µM,,> 100 µM,,,,
CCCCN(CCCC)C(=O)C(=O)C(C)C(=O)CC (configuration not stated),,,,> 100 µM,,> 100 µM,,,,> 100 µM,,> 100 µM,,> 100 µM,,> 100 µM,,,,
CC(=O)c1cc2c(c3ccsc13)-c1ccccc1CC2,17.2 µM,67.8 µM,45.5 µM,> 100 µM,27.7 µM,89.8 µM,21 µM,> 100 µM,,,28.1 µM,95.6 µM,25.4 µM,> 100 µM,> 100 µM,> 100 µM,2.17 µM,44.6 µM,> 100 µM,> 100 µM
Cc1cc(C)cc(Nc2ccc([N+](=O)[O-])c(NCCN3CCOCC3)n2)c1,0.000606 µM,0.00915 µM and 0.0676 µM,0.0143 µM and 0.012 µM,> 100 µM,0.00162 µM,,0.000327 µM,> 100 µM,,> 100 µM,0.00739 µM and 0.0275 µM,> 100 µM,0.000367 µM,0.00192 µM,,> 100 µM,0.00306 µM and 0.0165 µM,48.4 µM,,
CC(=O)/C=C/C1=C(c2cccs2)c2ccccc2CC1,23.7 µM,47.9 µM,22.5 µM,57.5 µM,18.8 µM,41.7 µM,,,,,34.3 µM,> 100 µM,29.7 µM,63.6 µM,42 µM,> 100 µM,29.5 µM,98.6 µM,53.5 µM,23.7 µM
Cc1[nH]nc2c1C(=O)C=C(N(CCO)c1ccccc1)C2=O,,,,,,> 100 µM,,,,> 100 µM,,> 100 µM,,> 100 µM,,> 100 µM,,,,
C#Cc1cccc(Oc2ccc(NC(=O)CCl)cc2)c1,,,> 82.5 µM,> 82.5 µM,72.8 µM,> 82.5 µM,64.4 µM,> 82.5 µM,10.8 µM,77.1 µM,48.1 µM,> 82.5 µM,> 82.5 µM,> 82.5 µM,> 82.5 µM,> 82.5 µM,> 82.5 µM,> 82.5 µM,> 82.5 µM,> 82.5 µM
CCCCCCCCCCCCCC(=O)C(C)N (configuration not stated),,,6.74 µM,20.7 µM,8.66 µM,22.1 µM,2.13 µM,5.77 µM,7.06 µM,23.5 µM,6.94 µM,21.9 µM,14.1 µM,28.3 µM,9.36 µM,22 µM,9.16 µM,29.1 µM,5.5 µM,2.17 µM
COc1ccc(C(=O)C(C(=O)C(=O)Nc2nccs2)c2ccc(OC)cc2)cc1 (configuration not stated),,> 100 µM,,> 100 µM,,> 100 µM,,,,> 100 µM,,> 100 µM,,> 100 µM,,> 100 µM,,,,
c1cc(-c2cn[nH]c2)cc(-c2cn[nH]c2)c1,,89.7 µM,,,,> 100 µM,,,,> 100 µM,,> 100 µM,,> 100 µM,,37.5 µM,,,,
Nc1ccc2ccc(NS(=O)(=O)N3CCCCC3)cc2c1,0.176 µM,0.872 µM,3.64 µM,> 100 µM,,,0.295 µM,> 100 µM,0.524 µM,> 100 µM,1.53 µM,> 63.8 µM,,,0.498 µM,,0.396 µM,5.99 µM,> 75.3 µM,0.381 µM
O=[N+]([O-])[O-].O=[N+]([O-])[O-].[Au].[Au].c1ccc([P-]c2ccccc2)cc1.c1ccc([P-]c2ccccc2)cc1,> 100 µM,> 100 µM,17 µM,33.9 µM,22.6 µM,52.9 µM,,,,,36 µM,> 100 µM,26.4 µM,55.4 µM,> 100 µM,> 100 µM,,,,

# Source: PubChem BioAssay (NCI)
